Measured values taken from paper PMC7038240 (Antimicrobial Agents and Chemotherapy, 2020).
Where two headings read alike, the source gives them in different places.

Tests used:
Format in all cases: cell-based
M. morgannii = assay: organism not typed; conditions: strain 769909; OXA-48
Description: (§1) The antibacterial activity of cefepime-taniborbactam was compared to that of ceftazidime-avibactam, ceftolozane-tazobactam, and cefepime-tazobactam against a diverse panel of Enterobacterales and P. aeruginosa clinical isolates with defined β-lactamase subtypes (see Table S1 in the supplemental material). IMP-producing strains were excluded, as none of the BLI-protected cephalosporins inhibited IMP sufficiently to provide a clinically relevant rescue of the partner β-lactam, a characteristic also shared by approved BLI-protected carbapenems (meropenem-vaborbactam and imipenem-relebactam). […] The antibacterial activity of the cephalosporins alone was included to ascertain the level of potentiation by the partnered BLI. BLIs were tested at a fixed concentration of 4 μg/ml in all combinations except cefepime-tazobactam, where tazobactam was fixed at a concentration of 8 μg/ml ([38]). The collection comprised 143 clinical isolates collected from 2005 and 2018.
(§2) The in vitro antibacterial activity of the β-lactams alone or in combination with the BLIs was determined in cation-adjusted Mueller-Hinton broth (CAMHB) microdilution assays according to CLSI recommendations ([51]). […]. The inocula for the broth microdilution assays were prepared by the broth culture method ([51]). […]

S. marcescens = assay: microbe, parasite or virus in culture; conditions: Serratia marcescens
Description: as §1, §2

P. aeruginosa = assay: microbe, parasite or virus in culture; conditions: Pseudomonas aeruginosa
Description: as §1, §2

S. typhi = assay: microbe, parasite or virus in culture; conditions: Salmonella enterica, strain 26A, AmpC/TEM-1
Description: as §1, §2

S. paratyphi = assay: microbe, parasite or virus in culture; conditions: Salmonella enterica, strain 527, AmpC/TEM-1
Description: as §1, §2

C. freundii = assay: microbe, parasite or virus in culture; conditions: Citrobacter freundii
Description: as §1, §2

K. oxytoca = assay: microbe, parasite or virus in culture; conditions: Klebsiella oxytoca, read-out: MIC
Description: as §1, §2

K. aerogenes = assay: microbe, parasite or virus in culture; conditions: Klebsiella aerogenes
Description: as §1, §2

E. coli = assay: microbe, parasite or virus in culture; conditions: Escherichia coli, read-out: MIC
Description: as §1, §2

K. pneumoniae = assay: microbe, parasite or virus in culture; conditions: Klebsiella pneumoniae, read-out: MIC
Description: as §1, §2

Measured: MIC

CO/N=C(\C(=O)N[C@@H]1C(=O)N2C(C(=O)[O-])=C(C[N+]3(C)CCCC3)CS[C@H]12)c1csc(N)n1 [FEP]
2 µg/mL: S. marcescens; strain 218073, AmpC/SHV-7/TEM-1 | K. pneumoniae; strain 212027, AmpC/FOX-5/TEM-1
8 µg/mL: P. aeruginosa; strain 8273, PDC/TEM-1, read-out: MIC | P. aeruginosa; strain PA2, W.T., read-out: MIC | P. aeruginosa; strain PS-32, VIM-2, read-out: MIC | C. freundii; strain 241181, AmpC/TEM-163 | E. coli; strain 875627, CTX-M-27 | E. coli; strain SI-V502, TEM-29/CTX-M-15 | K. pneumoniae; strain 178279, SHV-12/TEM-1/AmpC | K. pneumoniae; strain 722870, OXA-48 | K. pneumoniae; strain ESBL 10, SHV-12/TEM-1 | K. pneumoniae; strain KPN 508, SHV-7/TEM-1
0.06 µg/mL: M. morgannii | E. coli; ATCC25922, E. coli ATCC 25922, enzyme content None | K. pneumoniae; ATCC13883, K. pneumoniae ATCC 13883, enzyme content None
1 µg/mL: P. aeruginosa; ATCC27853, P. aeruginosa ATCC 27853, PDC-5, read-out: MIC | P. aeruginosa; ATCC27853, strain ATCC 27853, W.T., read-out: MIC | P. aeruginosa; strain 164951, W.T., read-out: MIC | E. coli; strain 469, AmpC/SHV-12/TEM-1 | K. pneumoniae; strain SI-F100, SHV-5/TEM-1/CMY-2
0.25 µg/mL: E. coli; strain SI-PO26, AmpC/CMY-2/TEM-1
32 µg/mL: P. aeruginosa; P. aeruginosa PS-12 (ST-235, VIM-2), BLI fixed at 4 μg/ml, read-out: MIC | P. aeruginosa; strain 10.257, PDC-50, read-out: MIC | P. aeruginosa; strain 247.3D, VIM-2, read-out: MIC | P. aeruginosa; strain 1113755, GES-5, read-out: MIC | P. aeruginosa; strain 1258509, GES-6, read-out: MIC | P. aeruginosa; strain PS-12, VIM-2, read-out: MIC | K. oxytoca; strain 847537, KPC | E. coli; strain 664520, OXA-48 | E. coli; strain CDC-0069, NDM | K. pneumoniae; strain 515746, OXA-48 | K. pneumoniae; strain 664438, OXA-48 | K. pneumoniae; strain 664439, OXA-48 | K. pneumoniae; strain 847204, KPC | K. pneumoniae; strain 856819, SHV-11/VIM-1 | K. pneumoniae; strain 864085, KPC | K. pneumoniae; strain 873460, SHV-30/CTX-M-15 | K. pneumoniae; strain 884679, KPC | K. pneumoniae; strain 892694, SHV-12/TEM-1/CTX-M-15/OXA-48/ACT | K. pneumoniae; strain CDC-0003, KPC | K. pneumoniae; strain DOV, OXA-48
0.5 µg/mL: C. freundii; strain 134390, AmpC/TEM-1 | K. aerogenes; strain 73546, AmpC | E. coli; strain VER, OXA-48
128 µg/mL: P. aeruginosa; strain 11.698, PDC-87, read-out: MIC | P. aeruginosa; strain 13.1716, PDC-74, read-out: MIC | P. aeruginosa; strain CDC-0090, KPC, read-out: MIC | P. aeruginosa; strain Paeβ-15, 310-fold ↑ PDC-2/10% OprD/4.4x↑XYM, read-out: MIC | E. coli; strain 664523, OXA-48 | E. coli; strain 873435, CTX-M-15 | E. coli; strain CDC-0001, KPC | K. pneumoniae; strain 752334, OXA-48 | K. pneumoniae; strain 874328, SHV-11/CTX-M-15/NDM-1 | K. pneumoniae; strain 882752, SHV-11/TEM-1/KPC-3 | K. pneumoniae; strain 919877, SHV-OSBL/VIM-1 | K. pneumoniae; strain CDC-0148, NDM
256 µg/mL: K. pneumoniae; K. pneumoniae CDC-0049 (NDM), BLI fixed at 4 μg/ml
≥ 256 µg/mL: P. aeruginosa; strain 11.813, PDC-91, read-out: MIC | P. aeruginosa; strain 1013996, KPC-2, read-out: MIC | P. aeruginosa; strain 1138223, GES-19, read-out: MIC | P. aeruginosa; strain 1138337, GES-19, read-out: MIC | P. aeruginosa; strain 1275655, GES-20, read-out: MIC | P. aeruginosa; strain 1300089, GES-19, read-out: MIC | P. aeruginosa; strain 1313666, KPC-2, read-out: MIC | P. aeruginosa; strain PAA1-9G1, GES-5, read-out: MIC | P. aeruginosa; strain PAA1-9G2, GES-5, read-out: MIC | E. coli; strain 878358, TEM-1/CTX-M | E. coli; strain 1459453, NDM-7 | E. coli; strain CDC-0149, NDM | E. coli; strain ESBL 5, CTX-M-15/TEM-1 | K. pneumoniae; strain 845661, KPC | K. pneumoniae; strain 848562, KPC | K. pneumoniae; strain 848600, KPC | K. pneumoniae; strain 848828, KPC | K. pneumoniae; strain 849170, KPC | K. pneumoniae; strain 871489, KPC | K. pneumoniae; strain 1104864, SHV-OSBL(b)/VIM-1 | K. pneumoniae; strain 1104866, SHV-OSBL(b)/VIM-1 | K. pneumoniae; strain CDC-0049, NDM | K. pneumoniae; strain CDC-0139, NDM-1 | K. pneumoniae; strain CDC-0145, NDM | K. pneumoniae; strain CDC-0152, NDM
64 µg/mL: P. aeruginosa; strain 13.1717, PDC-74, read-out: MIC | P. aeruginosa; strain 13.1775, PDC-87, read-out: MIC | P. aeruginosa; strain Paeβ-18, 600-fold ↑ PDC-3/<0.01% OprD/3.9x and 5.6x ↑ABM and XYM, read-out: MIC | S. paratyphi | E. coli; E. coli CDC-0452, NDM | E. coli; NCTC13353, E. coli NCTC 13353, CTX-M-15 | E. coli; strain 664516, OXA-48 | E. coli; strain 664522, OXA-48 | E. coli; strain 849121, KPC | E. coli; strain 890500, TEM-1/CTX-M-14 | E. coli; strain 1275635, VIM-23 | E. coli; strain SI-LP377, CTX-M-2 | K. pneumoniae; strain 6299, OXA-163 | K. pneumoniae; strain 787422, OXA-48 | K. pneumoniae; strain 890066, SHV-33/TEM-33/CTX-M-15/IMP-1 | K. pneumoniae; strain CDC-0117, KPC-3 | K. pneumoniae; strain CDC-0125, KPC-3
16 µg/mL: P. aeruginosa | P. aeruginosa; P. aeruginosa CDC-0457, VIM, read-out: MIC | P. aeruginosa; strain 11.516, PDC-79, read-out: MIC | P. aeruginosa; strain 13.1737, PDC-80, read-out: MIC | P. aeruginosa; strain 13.1755, PDC-86, read-out: MIC | P. aeruginosa; strain 13.1760, PDC-77, read-out: MIC | P. aeruginosa; strain 3615, PDC/TEM-1, read-out: MIC | P. aeruginosa; strain 5671, VIM-1, read-out: MIC | P. aeruginosa; strain 1071703, GES-6, read-out: MIC | P. aeruginosa; strain Paeβ-04, 100-fold ↑ PDC-2/30% OprD/5.6x ↑ABM, read-out: MIC | P. aeruginosa; strain Paeβ-10, 67-fold ↑ PDC-2/0.1% OprD/5.7x↑ABM, read-out: MIC | P. aeruginosa; strain Paeβ-21, 200-fold ↑ PDC-4/10% OprD/13.5x ↑XYM, read-out: MIC | E. coli; strain 1924, TEM-12 | E. coli; strain 664507, OXA-48 | E. coli; strain SI-M004, SHV-2/GES-12 | K. pneumoniae; BAA1705, K. pneumoniae BAA 1705, KPC-2 | K. pneumoniae; strain 137052, SHV-11/KPC-3/TEM-1 | K. pneumoniae; strain 196477, AmpC | K. pneumoniae; strain 769972, OXA-48 | K. pneumoniae; strain 882956, SHV-31/DHA-1/VIM-1 | K. pneumoniae; strain 1280442, SHV-OSBL(b)/VIM-1 | K. pneumoniae; strain KIRK, OXA-162 | K. pneumoniae; strain KP 3, SHV-1/TEM-1 | K. pneumoniae; strain SI-C05, OXA-48 | K. pneumoniae; strain SI-KP NO30, TEM-26b/SHV-60/SHV-26
4 µg/mL: S. marcescens; strain 134434, AmpC/SHV-12/TEM-1 | S. marcescens; strain 192476, AmpC/TEM-1/SHV-5 | S. marcescens; strain 192478, AmpC/SHV-12/TEM-1 | P. aeruginosa; strain 1129, PDC, read-out: MIC | P. aeruginosa; strain 377860, W.T., read-out: MIC | P. aeruginosa; strain 384743, PDC/TEM-1, read-out: MIC | P. aeruginosa; strain Ps296, VIM-2, read-out: MIC | S. typhi | K. oxytoca; strain 134943, CMY-2/TEM-1 | K. aerogenes; strain 110099, AmpC/SHV-12 | K. aerogenes; strain 111707, AmpC/TEM-1 | E. coli; strain EC1552 2A, AmpC/CMY-2/TEM-1, CTX-M-15 | K. pneumoniae; strain ESBL8 #1, TEM-1/SHV-12
